Measured values from PubChem BioAssay (NCI).
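48-hour exposure; five concentrations; linearly interpolated endpoints. TGI: concentration producing complete growth inhibition.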

Assays:
Test in all cases: DTP human tumour cell line panel, 48 h
MOLT-4 leukemia = test system: MOLT-4 leukemia
ACHN renal = test system: ACHN renal
HOP-92 NSCLC = test system: HOP-92 NSCLC
786-0 renal = test system: 786-0 renal
K-562 leukemia = test system: K-562 leukemia
NCI/ADR-RES ovarian = test system: NCI/ADR-RES ovarian
MCF7 breast = test system: MCF7 breast
OVCAR-5 ovarian = test system: OVCAR-5 ovarian
CCRF-CEM leukemia = test system: CCRF-CEM leukemia
COLO 205 colon = test system: COLO 205 colon
HS 578T breast = test system: HS 578T breast
NCI-H226 lung = test system: NCI-H226 lung
NCI-H522 lung = test system: NCI-H522 lung
A549 NSCLC = test system: A549 NSCLC
PC-3 prostate = test system: PC-3 prostate
M14 melanoma = test system: M14 melanoma
NCI-H460 lung = test system: NCI-H460 lung
SF-295 CNS = test system: SF-295 CNS
IGROV1 ovarian = test system: IGROV1 ovarian
OVCAR-4 ovarian = test system: OVCAR-4 ovarian
SK-MEL-5 melanoma = test system: SK-MEL-5 melanoma
BT-549 breast = test system: BT-549 breast
LOX IMVI melanoma = test system: LOX IMVI melanoma
NCI-H23 lung = test system: NCI-H23 lung
MDA-N = test system: MDA-N
SNB-19 CNS = test system: SNB-19 CNS
HL-60(TB) leukemia = test system: HL-60(TB) leukemia
HCT-15 colon = test system: HCT-15 colon
UO-31 renal = test system: UO-31 renal
T-47D breast = test system: T-47D breast
UACC-62 melanoma = test system: UACC-62 melanoma
HOP-62 NSCLC = test system: HOP-62 NSCLC
CAKI-1 renal = test system: CAKI-1 renal
HCC-2998 colon = test system: HCC-2998 colon
SW-620 colon = test system: SW-620 colon
TK-10 renal = test system: TK-10 renal
SNB-75 CNS = test system: SNB-75 CNS
SK-MEL-2 melanoma = test system: SK-MEL-2 melanoma
MALME-3M melanoma = test system: MALME-3M melanoma
SF-268 CNS = test system: SF-268 CNS
KM12 colon = test system: KM12 colon
RPMI-8226 leukemia = test system: RPMI-8226 leukemia
HT29 colon = test system: HT29 colon
EKVX NSCLC = test system: EKVX NSCLC
RXF 393 renal = test system: RXF 393 renal
OVCAR-3 ovarian = test system: OVCAR-3 ovarian
OVCAR-8 ovarian = test system: OVCAR-8 ovarian
SF-539 CNS = test system: SF-539 CNS
SK-OV-3 ovarian = test system: SK-OV-3 ovarian
MDA-MB-435 = test system: MDA-MB-435
DU-145 prostate = test system: DU-145 prostate
U251 CNS = test system: U251 CNS
HCT-116 colon = test system: HCT-116 colon
SR leukemia = test system: SR leukemia
SN12C renal = test system: SN12C renal
MDA-MB-231 breast = test system: MDA-MB-231 breast
UACC-257 melanoma = test system: UACC-257 melanoma

## O=C1NN=C2C=C(c3ccc(Cl)cc3)CC(c3cccc(Br)c3)C12 (configuration not stated)
MOLT-4 leukemia
  TGI: > 100 µM
ACHN renal
  TGI: > 100 µM
HOP-92 NSCLC
  TGI: 31.3 µM
786-0 renal
  TGI: > 100 µM
K-562 leukemia
  TGI: > 100 µM
NCI/ADR-RES ovarian
  TGI: > 100 µM
MCF7 breast
  TGI: > 100 µM
OVCAR-5 ovarian
  TGI: > 100 µM
CCRF-CEM leukemia
  TGI: 56.5 µM
COLO 205 colon
  TGI: > 100 µM
HS 578T breast
  TGI: 68.1 µM
NCI-H226 lung
  TGI: > 100 µM
NCI-H522 lung
  TGI: > 100 µM
A549 NSCLC
  TGI: > 100 µM
PC-3 prostate
  TGI: > 100 µM
M14 melanoma
  TGI: > 100 µM
NCI-H460 lung
  TGI: > 100 µM
SF-295 CNS
  TGI: > 100 µM
IGROV1 ovarian
  TGI: > 100 µM
OVCAR-4 ovarian
  TGI: > 100 µM
SK-MEL-5 melanoma
  TGI: > 100 µM
BT-549 breast
  TGI: > 100 µM
LOX IMVI melanoma
  TGI: > 100 µM
NCI-H23 lung
  TGI: > 100 µM
MDA-N
  TGI: > 100 µM
SNB-19 CNS
  TGI: 57.7 µM
HL-60(TB) leukemia
  TGI: > 100 µM
HCT-15 colon
  TGI: 61.7 µM
UO-31 renal
  TGI: > 100 µM
T-47D breast
  TGI: > 100 µM
UACC-62 melanoma
  TGI: > 100 µM
HOP-62 NSCLC
  TGI: > 100 µM
CAKI-1 renal
  TGI: > 100 µM
HCC-2998 colon
  TGI: > 100 µM
SW-620 colon
  TGI: > 100 µM
TK-10 renal
  TGI: > 100 µM
SNB-75 CNS
  TGI: > 100 µM
SK-MEL-2 melanoma
  TGI: > 100 µM
MALME-3M melanoma
  TGI: > 100 µM
SF-268 CNS
  TGI: > 100 µM
KM12 colon
  TGI: > 100 µM
RPMI-8226 leukemia
  TGI: > 100 µM
HT29 colon
  TGI: > 100 µM
EKVX NSCLC
  TGI: > 100 µM
RXF 393 renal
  TGI: > 100 µM
OVCAR-3 ovarian
  TGI: > 100 µM
OVCAR-8 ovarian
  TGI: > 100 µM
SF-539 CNS
  TGI: > 100 µM
SK-OV-3 ovarian
  TGI: > 100 µM
MDA-MB-435
  TGI: > 100 µM
DU-145 prostate
  TGI: > 100 µM
U251 CNS
  TGI: > 100 µM
HCT-116 colon
  TGI: > 100 µM
SR leukemia
  TGI: > 100 µM
SN12C renal
  TGI: > 100 µM
MDA-MB-231 breast
  TGI: > 100 µM
UACC-257 melanoma
  TGI: 67 µM
